Measured values published in the Biogen ADME set (Fang et al. 2023).
≈ marks a conversion by molar mass, not a printed value.

Conditions: for aqueous solubility: pH 6.8

MDR1-MDCK efflux ratio	intrinsic clearance, human liver microsomes [mL/min/kg]	intrinsic clearance, rat liver microsomes [mL/min/kg]	aqueous solubility [µg/mL]	fraction unbound, human plasma	fraction unbound, rat plasma	SMILES
47.7	104	237	46.4 (≈ 103 µM)	–	–	CCOc1ccccc1C(=O)N1CCC(c2nc(-c3ccc(OC)cc3)c(C(N)=O)[nH]2)CC1
1.26	≤ 4.74	20.3	17.1 (≈ 64.9 µM)	–	–	Cc1cc(-c2nnc3ccc4ccccc4n23)n(C)n1
2.57	24	270	36 (≈ 108 µM)	–	–	CN(C)CCNc1c2c(c(C#N)c3nc4ccccc4n13)CCCC2
0.771	≤ 4.74	193	–	–	–	C[C@@H]1NC(=O)N(CCC2Cc3ccccc3C2)C1=O
0.483	261	1340	55.5 (≈ 182 µM)	–	–	COc1ccc(C2(NCc3cccc4ncccc34)CC2)cc1
2.13	134	1990	2.7 (≈ 6.28 µM)	–	–	CC(=O)N1CCN(c2c(Cl)cccc2NC(=O)COc2ccc(C(C)C)cc2)CC1
0.515	108	5910	–	–	–	Cc1ccnc(N2CCC(OCC3CCCC3)CC2)n1
0.673	89.4	1690	36.4 (≈ 113 µM)	–	–	CCc1cc(CN(C)c2nccc(-c3ccc(C)nc3C)n2)on1
0.527	8.3	56.2	–	–	–	CC(=O)c1ccc2c(c1)CCN(CCC1OCCO1)CC2
–	–	–	97 (≈ 379 µM)	–	–	O=C(COc1ccc(F)cc1F)N1CCNC1=O
1.12	6.38	105	–	–	–	CCc1cc(-c2ccc(OC)c3nc(C)ccc23)nc(N2CCOCC2)n1
106	17.6	790	–	–	–	COc1cc(OC)cc(N(CCNC(C)C)c2ccc3ncc(-c4cnn(C)c4)nc3c2)c1
9.86	25.1	550	21.4 (≈ 60.9 µM)	–	–	COCCc1nc(CCCn2cccn2)n(C2Cc3ccccc3C2)n1
1.09	27.8	585	66.6 (≈ 177 µM)	–	–	O=C(NCCNc1ncccc1C(F)(F)F)c1cnc2ccccn2c1=O
93.8	≤ 4.74	16.6	28.6 (≈ 93.1 µM)	–	–	CCCn1cnnc1Cn1ccnc1-c1ccc2occc2c1
0.788	251	3840	43.2 (≈ 117 µM)	–	–	O=C([C@H]1CCCN(Cc2ccc(Cl)cc2)C1)N1CCc2ccccc2C1
–	445	9320	–	–	–	CCN1C(=O)C(C)(C)COc2cc(NS(=O)(=O)c3cc(C)c(C)cc3OC)ccc21
–	150	184	23.9 (≈ 98.2 µM)	–	–	COc1ncccc1NC(=O)c1cccc(C)n1
1.85	–	–	0.71 (≈ 1.61 µM)	–	–	N#Cc1ccnc(Nc2cc(C3CCN(C4COC4)CC3)cc(N3CCC(F)(F)C3)n2)c1

MDR1-MDCK efflux ratio	intrinsic clearance, human liver microsomes [mL/min/kg]	intrinsic clearance, rat liver microsomes [mL/min/kg]	aqueous solubility [µg/mL]	fraction unbound, human plasma	fraction unbound, rat plasma	SMILES
–	29.3	303	4.95 (≈ 14.2 µM)	–	–	Oc1cccc(CN2CCN(c3ncc(Br)cn3)CC2)c1
14.9	37.3	390	70.2 (≈ 156 µM)	–	–	Cc1nc([C@H]2CC[C@H](CNC(=O)CN3CCC(c4ccccc4)CC3)CC2)ccc1C(N)=O
36.8	16.2	153	–	–	–	CNCc1cc(NC)nc(C2CCCN2C(=O)C(C)(C)c2ccc(C)cc2)n1 (stereo unspecified)
0.827	9.28	148	49.1 (≈ 171 µM)	–	–	CCc1cc(NCc2cccc(OCCOC)c2)ncn1
0.531	262	2310	7.2 (≈ 22.9 µM)	–	–	N#CCCN(C(=O)c1cccs1)C12CC3CC(CC(C3)C1)C2
0.748	≤ 4.74	50.8	–	–	–	N#CCn1ncnc1-c1cccc(C#N)c1
13.9	43.7	319	51.3 (≈ 171 µM)	–	–	Cc1nc(NC(c2nccn2C)C2CC2)c2sccc2n1 (stereo unspecified)
–	29.1	608	4.96 (≈ 17 µM)	–	–	CC(C)c1ccc(NC(=O)c2ccc3nccnc3c2)cc1
0.666	≤ 4.74	≤ 10.7	32.5 (≈ 161 µM)	–	–	CN(CCc1ccccc1)C(=O)CC#N
–	≤ 4.74	392	–	–	–	CN(C(=O)[C@@H](N)Cc1ccccc1)c1ccccc1
18.8	≤ 4.74	≤ 10.7	–	–	–	CN(C)c1ccncc1CN1CCN(c2ccc(C(N)=O)cc2)CC1
0.559	48	214	9.73 (≈ 43.4 µM)	–	–	Cc1cc(C)cc(Oc2cc(C#N)ccn2)c1
8.23	≤ 4.74	–	–	0.535	–	CCc1c[nH]c2ncnc(N3CCC(CN4CCN(C)CC4)CC3)c12
–	–	–	63.5 (≈ 129 µM)	–	–	CC1(C)CC[C@]2(C(=O)O)CC[C@]3(C)C(C(=O)C=C4[C@@]5(C)C=C(C#N)C(=O)C(C)(C)[C@@H]5CC[C@]43C)C2C1 (stereo partly specified)
0.866	108	1980	2.08 (≈ 5.54 µM)	–	–	O=C(CCc1nnc(-c2ccsc2)o1)N1CCCc2cc(F)c(F)cc21
143	38.4	352	55.4 (≈ 136 µM)	–	–	COc1cccc(OCCCn2cncc2-c2cc3c(cc2C)n(C)c(=O)n3C)c1
1.2	≤ 4.74	61.9	–	–	–	CCN1CCN(c2ccc(Nc3ncnc4sccc34)cc2)CC1
–	609	2340	–	–	–	Cc1cc(C)n(C(=O)CCCC(=O)n2nc(C)cc2C)n1
0.614	131	3040	34.9 (≈ 103 µM)	–	–	COc1ccc(Cc2ncnn2-c2ccc3c(c2)OCO3)c(OC)c1

MDR1-MDCK efflux ratio	intrinsic clearance, human liver microsomes [mL/min/kg]	intrinsic clearance, rat liver microsomes [mL/min/kg]	aqueous solubility [µg/mL]	fraction unbound, human plasma	fraction unbound, rat plasma	SMILES
–	–	–	21.8 (≈ 105 µM)	–	–	NCCOc1cccc(C(F)(F)F)n1
–	≤ 4.74	≤ 10.7	61 (≈ 157 µM)	–	–	CC(=O)Nc1ccc(S(=O)(=O)NC2=NCN(Cc3ccccc3)CN2)cc1
3.58	≤ 4.74	971	31 (≈ 121 µM)	–	–	Cc1cccc(NCCc2cn3c(n2)CCCC3)n1
0.725	≤ 4.74	39.3	51.4 (≈ 173 µM)	–	–	CCCc1nc(N2CCc3ccccc3C2)ncc1C(=O)O
–	173	916	11.3 (≈ 45.8 µM)	–	–	Cc1csc(NC(=O)c2cccc(C)c2C)n1
9.53	10.5	70.6	36.2 (≈ 107 µM)	0.0736	0.0485	COc1nn(C)cc1C(=O)Nc1cccc(-c2cnc3n2CCC3)c1
75.6	9.16	108	29.5 (≈ 68.7 µM)	–	–	CCCCC1=NC2(CCCC2)C(=O)N1Cc1ccc(-c2ccccc2-c2nnn[nH]2)cc1
22.9	≤ 4.74	38.3	–	–	–	Cc1n[nH]c(C2CCN(C(=O)NC3CCN(c4ccc(F)cc4)CC3)CC2)n1
39.2	26.1	634	–	–	–	CCNc1ccnc(-c2cccc(C(=O)NCCCc3cnn(C)c3)c2)n1
0.666	134	3140	–	–	–	CC(C)OCCS(=O)(=O)N1CCc2ccccc2CC1
0.442	–	–	0.7 (≈ 2.04 µM)	–	–	CC(C)COc1cc(F)cc(-c2cncc(C(=O)N3CCCC3)n2)c1
109	47.7	108	–	–	–	CC1(C)CC(=O)c2c(C(F)(F)F)nn(-c3ccc(C(N)=O)c(N[C@H]4CC[C@@H](O)CC4)c3)c2C1
2.77	7.16	315	–	–	–	CN1CCC[C@H]1C(=O)N[C@@H](CO)Cc1ccccc1
0.192	–	–	0.7 (≈ 2.95 µM)	–	–	Oc1cccc(/C=C/c2nc3ccccc3o2)c1
24.8	–	–	0.14 (≈ 0.296 µM)	–	–	CC(C)(O)CNc1nc(Nc2ccnc(C(F)(F)F)c2)nc(-c2cccc(C(F)(F)F)n2)n1
1.29	40.6	151	44.2 (≈ 124 µM)	–	–	Fc1ccc(F)c2c(NCc3ccc(N4CCOCC4)nc3)ccnc12
1.04	≤ 4.74	30	70.8 (≈ 239 µM)	–	–	O=C(NCc1ccc(F)cc1)c1ccc(-n2ccnc2)nc1
10.2	9.92	42.6	–	0.104	0.124	CC(C)(O)CCn1cc2cc(NC(=O)c3cccc(C(F)(F)F)n3)c(C(C)(C)O)cc2n1
–	≤ 4.74	77.8	–	–	–	CCOc1cc(N2CCc3nc[nH]c3C2)ncn1
